Literature values, collected in US7317012B2, “Bicyclic heterocycles as cannabinoind-1 receptor modulators” (Bristol-Myers Squibb Company, priority 2005, dated 2008).
Where two headings read alike, the source gives them in different places.

Tests used:
[1] = chronic administration for two weeks
[2] = human subjects, 16 week trial period

SMILES	body weight [1]	body weight [2]
Cc1c(C(=O)NN2CCCCC2)nn(-c2ccc(Cl)cc2Cl)c1-c1ccc(I)cc1 [AM-251]	substantial body weight reduction	
Cc1c(C(=O)NN2CCCCC2)nn(-c2ccc(Cl)cc2Cl)c1-c1ccc(Cl)cc1 [SR-141716]		dose-dependently reduced body weight
